From US7682630B2, “Antitumor agent and process for producing the same” (priority 2003, dated 2010)

What was measured:
[1] = Release of free drug from the dialysis bag; format: physicochemical; settings: same dialysis setting
Procedure: It is of importance that large molecular weight polymeric drugs having apparent molecular size larger than 10.000, preferably more than 50 KDa such as SMA-anthracyclin micelles, to exert tumor seeking EPR-effect, and thereby ultimately releasing free drug. To verify the drug complexes of the present invention release free drug from the micelle or polymeric conjugate in vitro, 20 mg of SMA-doxorubicin conjugates or SMA-pirarubicin conjugates was dissolved in 5 ml H2O and placed in sealed dialysis bag (M. W cut off 1.000; Spectrapor, Spectrum Laboratories Inc. CA. USA.). The dialysis bag was submerged in 25 ml of H2O with adjusted pH either at 7.4 to resemble circulating blood or pH 5.5 for tumor tissue, using 0.01 M NaOH and 0.01 M HCl, and incubated at 37° C. for several days in the dark. […] The released pirarubicin or doxorubicin outside the dialysis bag was collected at pre-determined time and amount was quantified by absorbance at 480 nm.
When the outside solution was replaced by ethanol the release rate has increased tremendously indicating the disruption of the hydrophobic interaction in the complex between the anthracyclins and the styrene hydrophobic moiety of SMA. One can envisage this hydrophobic environment would be more close to the endosome after internalization of the polymeric micelle into cytoplasm of cancer cell by endocytosis. […]

[2] = Side effects / hematological toxicity in S-180 bearing mice; format: in vivo; settings: 10 mg/kg iv
Procedure: S-180 bearing mice with tumors of about 5-7 mm in diameter were used for this study. Full blood analysis was performed weekly for 4 weeks before and after 1, 2 and 3 weeks of iv injections of either doxorubicin, pirarubicin or their SMA micelle complexes as described above. Blood biochemistry including, alanine aminotransferase (ALT), aspartate aminotransferase (AST), lactic dehydrogenase (LDH) and total creatine phosphokinase (CPK) were measured at 36 hr after i.v. administration of either free drugs or SMA-micelle complexes.
At the same time, the heart, spleen, liver and kidney tissues were stained with hematoxylin-eosin (H&E staining) for determination of cytological tissue toxicity.

Compound | time for free drug to extravasate out of the dialysis tube [1] | Erythrocyte ([2]; 1 week) | Hemoglobin ([2]; 1 week) [g/dL] | Leucocyte ([2]; 1 week) | Survival Rate ([2]; 1 week) [%] | Thrombocyte ([2]; 1 week) | Erythrocyte ([2]; 2 week) | Hemoglobin ([2]; 2 week) [g/dL] | Leucocyte ([2]; 2 week) | Survival Rate ([2]; 2 week) [%] | Thrombocyte ([2]; 2 week) | Erythrocyte ([2]; 3 week) | Hemoglobin ([2]; 3 week) [g/dL] | Leucocyte ([2]; 3 week) | Survival Rate ([2]; 3 week) [%] | Thrombocyte ([2]; 3 week)
COc1cccc2c1C(=O)c1c(O)c3c(c(O)c1C2=O)CC(O)(C(=O)CO)CC3OC1CC(N)C(OC2CCCCO2)C(C)O1 (centres unmarked) [Free pirarubicin, pirarubicin] | within a few hours | 490.6 ± 144 ×10,000/mm^3 | 11.1 ± 0.9 | 2533 ± 108 /mm^3 | 100 | 67.7 ± 0.9 ×1,000/mm^3 | 876 ×10,000/mm^3 | 12.1 | 5000 /mm^3 | 25 | 130 ×1,000/mm^3 | 916 ×10,000/mm^3 | 15.7 | 4500 /mm^3 | 25 | 143 ×1,000/mm^3
COc1cccc2c1C(=O)c1c(O)c3c(c(O)c1C2=O)C[C@@](O)(C(=O)CO)C[C@@H]3O[C@H]1C[C@H](N)[C@H](O)[C@H](C)O1 [doxorubicin] | within a few hours | – | – | – | – | – | – | – | – | – | – | – | – | – | – | –
